{"source": "paper PMC7255010", "about": "“Small-molecule activating SIRT6 elicits therapeutic effects and synergistically promotes anti-tumor activity of vitamin D3 in colorectal cancer” (Theranostics, 2020)", "assay_in_all_cases": "Cell proliferation, CCK-8", "assay_type_in_all_cases": "cell-based", "key": {"[1]": {"tested_on": "Caco2", "details": "Homo sapiens, Caco-2; Caco2, CCK8, 48 h", "method": "(§1) Cell proliferation was evaluated using a Cell Counting Kit-8 (CCK-8) (Dojindo) following the manufacturer's instructions. Briefly, CRC cells were plated in 96-well plates at a density of 5 × 10^3 cells per well. […] Cells treated with DMSO were used as the […] controls, and the final DMSO concentration in the medium was 0.1%. After 48 h of treatment, 10 μL of CCK-8 solution was added to every well and incubated for 1 h at 37 °C. Then, a microplate reader (Synergy H4 Hybrid Reader, BioTek) was used to measure the absorbance of the solvent at 450 nm. The background of drug and culture medium has been deducted in each well. The relative cell proliferation of each treatment group was expressed as the percentage change relative to the […] control group. Each data point is the mean ± s.d. of two or three independent experiments."}, "[2]": {"tested_on": "Colo201", "details": "Homo sapiens, COLO 201; Colo201, CCK8, 48 h", "method": "as §1"}, "[3]": {"tested_on": "Colo205", "details": "Homo sapiens, COLO 205; Colo205, CCK8, 48 h", "method": "as §1"}, "[4]": {"tested_on": "Colo320DM", "details": "Homo sapiens, COLO 320DM, CCK8, 48 h", "method": "as §1"}, "[5]": {"tested_on": "DLD-1", "details": "Homo sapiens; DLD-1, CCK8, 48 h", "method": "as §1"}, "[6]": {"tested_on": "HCT116", "details": "Homo sapiens, HCT-116", "method": "as §1"}, "[7]": {"tested_on": "HCT15", "details": "Homo sapiens, HCT-15; HCT15, CCK8, 48 h", "method": "as §1"}, "[8]": {"tested_on": "HCT8", "details": "Homo sapiens, HCT-8; HCT8, CCK8, 48 h", "method": "as §1"}, "[9]": {"tested_on": "HT29", "details": "Homo sapiens, HT-29; HT29, CCK8, 48 h", "method": "as §1"}, "[10]": {"tested_on": "LOVO", "details": "Homo sapiens, CCK8, 48 h", "method": "as §1"}, "[11]": {"tested_on": "LS1034", "details": "Homo sapiens, LS-1034; LS1034, CCK8, 48 h", "method": "as §1"}, "[12]": {"tested_on": "LS123", "details": "Homo sapiens, LS-123; LS123, CCK8, 48 h", "method": "as §1"}, "[13]": {"tested_on": "LS174T", "details": "Homo sapiens, CCK8, 48 h", "method": "as §1"}, "[14]": {"tested_on": "LS180", "details": "Homo sapiens; LS180, CCK8, 48 h", "method": "as §1"}, "[15]": {"tested_on": "LS513", "details": "Homo sapiens, LS-513; LS513, CCK8, 48 h", "method": "as §1"}, "[16]": {"tested_on": "NCI-H508", "details": "Homo sapiens; NCI-H508, CCK8, 48 h", "method": "as §1"}, "[17]": {"tested_on": "NCI-H716", "details": "Homo sapiens; NCI-H716, CCK8, 48 h", "method": "as §1"}, "[18]": {"tested_on": "RKO", "details": "Homo sapiens, CCK8, 48 h", "method": "as §1"}, "[19]": {"tested_on": "SKCO1", "details": "Homo sapiens, SK-CO-1; SKCO1, CCK8, 48 h", "method": "as §1"}, "[20]": {"tested_on": "SW1116", "details": "Homo sapiens, SW 1116; SW1116, CCK8, 48 h", "method": "as §1"}, "[21]": {"tested_on": "SW1417", "details": "Homo sapiens; SW1417, CCK8, 48 h", "method": "as §1"}, "[22]": {"tested_on": "SW1463", "details": "Homo sapiens; SW1463, CCK8, 48 h", "method": "as §1"}, "[23]": {"tested_on": "SW480", "details": "Homo sapiens; SW480, CCK8, 48 h", "method": "as §1"}, "[24]": {"tested_on": "SW48", "details": "Homo sapiens; SW48, CCK8, 48 h", "method": "as §1"}, "[25]": {"tested_on": "SW620", "details": "Homo sapiens, SW-620; SW620, CCK8, 48 h", "method": "as §1"}, "[26]": {"tested_on": "T84", "details": "Homo sapiens; T84, CCK8, 48 h", "method": "as §1"}}, "note": "Read-outs that look alike come from different tables or passages of the source.", "data": [{"smiles": "Cc1cc(F)c(Br)cc1NS(=O)(=O)c1ccc(NS(=O)(=O)c2cc(Cl)cc(Cl)c2)cc1CN1CCOC[C@H]1C", "note": "[MDL-811]", "values": [{"measurement": "IC50", "setting": "[1]", "value": "28.7 ± 1.7", "unit": "µM"}, {"measurement": "IC50", "setting": "[2]", "value": "20.3 ± 1.4", "unit": "µM"}, {"measurement": "IC50", "setting": "[3]", "value": "38.1 ± 4.4", "unit": "µM"}, {"measurement": "IC50", "setting": "[4]", "value": "33.2 ± 0.9", "unit": "µM"}, {"measurement": "IC50", "setting": "[5]", "value": "18 ± 0.1", "unit": "µM"}, {"measurement": "IC50", "setting": "[6]; HCT116, CCK8, 48 h, read-out: IC50 ± s.d.", "value": "4.7 ± 0.2", "unit": "µM"}, {"measurement": "IC50", "setting": "[6]; HCT116, CCK-8, 48 h, Figure S6, mean ± s.e.m. of three experiments, read-out: IC50", "value": "4.8 ± 0.2", "unit": "µM"}, {"measurement": "IC50", "setting": "[7]", "value": "20.5 ± 1.3", "unit": "µM"}, {"measurement": "IC50", "setting": "[8]", "value": "20.1 ± 2", "unit": "µM"}, {"measurement": "IC50", "setting": "[9]", "value": "7 ± 1.1", "unit": "µM"}, {"measurement": "IC50", "setting": "[10]", "value": "7.8 ± 0.2", "unit": "µM"}, {"measurement": "IC50", "setting": "[11]", "value": "31.9 ± 0.7", "unit": "µM"}, {"measurement": "IC50", "setting": "[12]", "value": "19.8 ± 0.5", "unit": "µM"}, {"measurement": "IC50", "setting": "[13]", "value": "23.8 ± 2", "unit": "µM"}, {"measurement": "IC50", "setting": "[14]", "value": "19.1 ± 0.4", "unit": "µM"}, {"measurement": "IC50", "setting": "[15]", "value": "28.6 ± 0.6", "unit": "µM"}, {"measurement": "IC50", "setting": "[16]", "value": "9.7 ± 1.2", "unit": "µM"}, {"measurement": "IC50", "setting": "[17]", "value": "61 ± 2.3", "unit": "µM"}, {"measurement": "IC50", "setting": "[18]", "value": "12.3 ± 1.8", "unit": "µM"}, {"measurement": "IC50", "setting": "[19]", "value": "12.1 ± 0.1", "unit": "µM"}, {"measurement": "IC50", "setting": "[20]", "value": "5.7 ± 0.3", "unit": "µM"}, {"measurement": "IC50", "setting": "[21]", "value": "15.1 ± 1.9", "unit": "µM"}, {"measurement": "IC50", "setting": "[22]", "value": "13 ± 1.5", "unit": "µM"}, {"measurement": "IC50", "setting": "[23]", "value": "9.3 ± 1.7", "unit": "µM"}, {"measurement": "IC50", "setting": "[24]", "value": "10.8 ± 1.5", "unit": "µM"}, {"measurement": "IC50", "setting": "[25]", "value": "16.7 ± 1.4", "unit": "µM"}, {"measurement": "IC50", "setting": "[26]", "value": "13 ± 1.4", "unit": "µM"}]}]}
